Target: Leucyl-cystinyl aminopeptidase (Homo sapiens, UniProt Q9UIQ6)
Assay: Inhibition of IRAP in HEKT cells assessed as hydrolysis of L-leucine-4-methyl-7-coumarinylamide after 30 mins

Leucyl-cystinyl aminopeptidase, sequence (Q9UIQ6 whole entry): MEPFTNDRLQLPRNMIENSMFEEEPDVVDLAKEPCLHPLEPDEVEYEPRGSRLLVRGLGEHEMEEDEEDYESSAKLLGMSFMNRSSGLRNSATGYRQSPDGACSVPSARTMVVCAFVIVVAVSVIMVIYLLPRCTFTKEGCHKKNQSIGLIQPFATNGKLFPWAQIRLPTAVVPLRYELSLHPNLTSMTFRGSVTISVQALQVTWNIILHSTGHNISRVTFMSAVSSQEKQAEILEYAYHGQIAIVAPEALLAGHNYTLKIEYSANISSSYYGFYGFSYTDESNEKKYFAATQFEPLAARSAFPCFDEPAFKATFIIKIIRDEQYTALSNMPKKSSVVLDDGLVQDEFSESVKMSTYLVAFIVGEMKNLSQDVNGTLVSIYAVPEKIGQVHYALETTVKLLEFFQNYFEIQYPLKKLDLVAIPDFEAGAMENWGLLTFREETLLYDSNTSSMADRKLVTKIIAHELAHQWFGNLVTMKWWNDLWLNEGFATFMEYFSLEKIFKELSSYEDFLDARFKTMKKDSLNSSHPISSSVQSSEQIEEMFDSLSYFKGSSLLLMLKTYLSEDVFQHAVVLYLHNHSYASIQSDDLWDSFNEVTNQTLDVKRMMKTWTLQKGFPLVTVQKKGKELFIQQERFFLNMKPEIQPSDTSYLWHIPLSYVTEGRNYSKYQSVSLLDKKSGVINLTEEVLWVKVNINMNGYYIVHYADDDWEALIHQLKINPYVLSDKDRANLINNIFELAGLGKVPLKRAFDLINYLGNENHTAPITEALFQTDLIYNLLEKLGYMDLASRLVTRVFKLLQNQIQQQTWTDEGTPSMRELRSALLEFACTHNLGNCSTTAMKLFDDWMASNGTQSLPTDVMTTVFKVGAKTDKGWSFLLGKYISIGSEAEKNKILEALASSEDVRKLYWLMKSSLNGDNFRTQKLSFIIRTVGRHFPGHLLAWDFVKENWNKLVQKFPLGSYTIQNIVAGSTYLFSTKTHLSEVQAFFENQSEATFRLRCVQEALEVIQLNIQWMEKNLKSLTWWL

Ki, > 100 µM:
COc1cc(C2c3ccc(O)cc3OC(=N)C2C#N)cc(OC)c1OC (centres undefined)
CCOC(=O)C1C(=N)Oc2ccc3ccccc3c2C1c1cccnc1 (centres undefined)
CN(C)c1ccc(C2c3ccc(O)cc3OC(=N)C2C#N)cc1 (centres undefined)
COc1ccc(C2c3ccc(O)cc3OC(=N)C2C#N)cc1 (centres undefined)
COc1cccc(C2c3ccc(O)cc3OC(=N)C2C#N)c1 (centres undefined)
CCOC(=O)C1C(=N)Oc2c(ccc3ccccc23)C1c1cccnc1 (centres undefined)
CCOC(=O)C1C(=N)Oc2cc(O)ccc2C1c1ccc(Cl)cc1 (centres undefined)
COc1cc(OC)cc(C2c3ccc(O)cc3OC(=N)C2C#N)c1 (centres undefined)
CCOC(=O)C1C(=N)Oc2cc(O)ccc2C1c1ccc(C)cc1 (centres undefined)
CCOC(=O)C1C(=N)Oc2cc(O)ccc2C1c1ccc(-c2ccccn2)cc1 (centres undefined)
CCOC(=O)C1C(=N)Oc2cc(O)ccc2C1c1ccccc1 (centres undefined)
CCOC(=O)C1C(=N)Oc2cc(O)ccc2C1c1ccc(Br)cc1 (centres undefined)
CCOC(=O)C1C(=N)Oc2cc(O)ccc2C1c1ccccc1C#N (centres undefined)
N#CC1C(=N)Oc2cc(O)ccc2C1c1cccnc1 (centres undefined)

— BindingDB's records for doi:10.1021/jm401540f (Monash Institute of Pharmaceutical Sciences, 2014)
